Experimental data: patent US10202412B2, “β-D-2′-deoxy-2′-substituted-4′-substituted-2-substituted-N6-substituted-6-aminopurinenucleotides for the treatment of paramyxovirus and orthomyxovirus infections” (Atea Pharmaceuticals, Inc., priority 2016, dated 2019)
Where two headings read alike, the source gives them in different places.

Columns and labels:
Format in all cases: cell-based
[1] = system: human bone marrow progenitor cells (CFU-GM); assay: Human bone marrow progenitor cell assay, CFU-GM (GM-CSF-specific culture); conditions: 14-day incubation, colony counts, read-out: Bone Marrow Stem Cell IC50 CFU-GM
Protocol: (§1) Select compounds were tested in an in vitro selectivity study with human bone marrow progenitor cells. Fresh human bone marrow progenitor cells (Invitrogen) suspended in either BFU-E or GM-CSF-specific culture medium were added, at 10^5 cells/well, to triplicate serial dilutions of TA in 6-well plates. After 14-day incubations, colony counts were used to determine […] values. BFU-E colonies were confirmed using the benzidene technique. No cytotoxicity was observed from any of the tested compounds.

[2] = system: human bone marrow progenitor cells (BFU-E); assay: Human bone marrow progenitor cell assay, BFU-E; conditions: BFU-E-specific culture, 14-day incubation, colony counts, read-out: Bone Marrow Stem Cell IC50 BFU-E
Protocol: as §1

iPS cardiomyocytes = assay: iPS cardiomyocyte assay (XTT viability); conditions: 72 h, 3 days incubation, XTT staining
Protocol: Select compounds were tested in an in vitro selectivity study with iPS cardiomyocytes. iPS cardiomyocytes (Cellular Dynamics) were seeded in microliter plates at 1.5×10^4 cells per well. After 48-hr incubation, cells were washed and maintenance medium containing 30 serially diluted TA was added in triplicate. After incubating for an additional 3 days, cellviability was measured by staining with XTT and CC50 values were calculated. No cytotoxicity was observed from any of the tested compounds.

[3] = system: Respiratory syncytial virus (RSV) type A, strain A2 (ATCC VR-1540); assay: dNHBE assay: RSV virus yield reduction (EC90); conditions: human respiratory syncytial virus, RSV (A2) in dNHBE cells; concentration reducing virus yield by 1 log10; mean of at least two experiments
Protocol: (§2) Differentiated normal human bronchial epithelial (dNHBE) cells were grown on 6 mm mesh disks in transwell inserts to approximately 1.2×10^6 cells/disk and disks were transferred to individual wells of a 6-well plate. 1 mL of proprietary culture medium was added to the basolateral side of the cells and the apical side was exposed to a humidified 95% air/5% CO2 environment. Cells were cultured at 37° C. for one day and then the mucin layer was removed from the apical side of the cells by repeated (3×) washing with 500 μL 30 mM HEPES buffered saline solution and culture medium on the basal side was replenished.
Respiratory syncytial virus (RSV) type A, strain A2 (ATCC VR-1540), previously passaged in MA-104 cells to make working stock cultures, was diluted 1/10 in medium before infection, using a multiplicity of infection (MOI) of ≤0.03 CCID50 per cell.
(§3) Various concentrations of test compounds in medium were applied in duplicate to the apical (140 μL) and basal sides (1 mL) for a 1 hour pre-treatment, followed by addition of 140 μL of virus inoculum to each cell insert on the apical side. The viral inoculum and treatments were removed after 2 hours. Control cells were treated with placebo (culture medium only). Following infection, the apical medium was removed and the basal side was replaced with fresh compound in medium. The cells were maintained at the air-liquid interface, and cell culture medium on the basal side was replaced daily with fresh medium containing test compound. After 4 days, the liquid was removed from the basal side and discarded and virus released into the apical compartment was harvested by the addition of 500 μL of culture medium. The medium was thoroughly mixed, then removed, diluted 1:1 with 40% sucrose and stored at ≤−80° C.
To determine the virus titer from each treated cell culture, MA-104 cells were seeded in 96-well plates and grown overnight (37° C.) to confluence. Samples containing virus were diluted in 10-fold increments in infection medium and 200 μL of each dilution transferred into respective wells of a 96-well microtiter plate. Four microwells were used for each dilution to determine 50% viral endpoints. After 7 days of incubation, each well was scored positive for virus if any cytopathic effect was observed as compared with the uninfected control. The virus dose that was able to infect 50% of the cell cultures (CCID50 per 0.1 mL) was calculated by the Reed-Muench method. This was repeated in duplicate for each test sample, so that values reported are an average of 2 independent CCID5o determinations. Untreated, uninfected cell controls were tested as negative controls. Statistical differences in the titers were evaluated with a one-way analysis of variance (ANOVA) followed by Dunnett's multiple comparisons test compared with the untreated virus controls.
(§4) Concentrations of test compounds that reduced virus yield by 1 log10 (90% effective concentration; EC90) were calculated by regression analysis. The reported EC90 value is the mean of at least two experiments. Potential toxicity of the test compounds was evaluated microscopically.

[4] = system: Differentiated normal human bronchial epithelial (dNHBE) cells; assay: dNHBE assay: toxicity evaluated microscopically; parameters: unit not given here
Protocol: as §2, §3, §4

[5] = system: respiratory syncytial virus A2 (ATCC VR-1540); assay: Cytopathic effect assay with RSV A2 in MA-104 cells; conditions: human respiratory syncytial virus, MA104, CPE inhibition, neutral red
Protocol: Test compounds were dissolved in DMSO and then prepared in eight half-log dilutions in MEM medium with 50 μg/mL gentamicin and 2% FBS (MA-104 cells only). Each dilution was added to 5 wells of a 96-well plate with 80-100% confluent cells (either MA-104 cells or HEp-2 cells). Three wells of each dilution were infected with respiratory syncytial virus A2 (ATCC VR-1540) and two wells remained uninfected as toxicity controls. After maximum cytopathic effect (CPE) was observed microscopically in untreated virus control wells, plates were stained with neutral red dye for approximately 2 hours, then supernatant dye was removed and the incorporated dye was extracted in 50:50 Sorensen citrate buffer/ethanol and read on a spectrophotometer. Optical density values were normalized based on cell and virus controls, then the concentration of test compound required to inhibit CPE by 50% (EC50) was calculated by regression analysis. The reported EC50 value is the mean of at least two experiments. The concentration of compound that caused 50% CPE in the absence of virus was similarly calculated to determine cytotoxicity (CC50).

Cc1cn([C@H]2C[C@H](N=[N+]=[N-])[C@@H](CO)O2)c(=O)[nH]c1=O [AZT, reference compound]
IC50 [1]: 4.56 µM
IC50 [2]: 2.59 µM

CNc1nc(F)nc2c1ncn2[C@@H]1O[C@](C)(CO[P@@](=O)(N[C@@H](C)C(=O)OC(C)C)Oc2ccccc2)[C@@H](O)[C@H]1F [AH, (S)-Isopropyl 2-(((S)-(((2R,3R,4R,5R)-5-(6-(methylamino)-2-fluoro-9H-purin-9-yl)-4-fluoro-3-hydroxy-2-methyltetrahydrofuran-2-yl)methoxy)(phenoxy)phosphoryl)amino) propanoate]
IC50 ([1]; Homo sapiens, CFU-GM, 336 h): > 100 µM
IC50 (iPS cardiomyocytes): > 100 µM
EC90 [3]: 0.12 µM
IC50 ([2]; Homo sapiens, 336 h): > 100 µM
Visual toxicity [4]: >1.7

CNc1nc(N)nc2c1ncn2[C@@H]1O[C@](CCl)(CO[P@@](=O)(N[C@@H](C)C(=O)OC(C)C)Oc2ccccc2)[C@@H](O)[C@H]1F [AI, (S)-Isopropyl 2-(((S)-(((2R,3R,4R,5R)-5-(2-amino-6-(methylamino)-9H-purin-9-yl)-2-(chloromethyl)-4-fluoro-3-hydroxytetrahydrofuran-2-yl)methoxy)(phenoxy)phosphoryl)amino) propanoate]
IC50 ([1]; Homo sapiens, CFU-GM, 336 h): > 100 µM
IC50 (iPS cardiomyocytes): > 100 µM
EC90 [3]: 0.13 µM
IC50 ([2]; Homo sapiens, 336 h): > 100 µM
Visual toxicity [4]: >1.6

CC(C)OC(=O)[C@H](C)NP(=O)(OC[C@@]1(CCl)O[C@@H](n2cnc3c(N(C)C)nc(N)nc32)[C@H](F)[C@@H]1O)Oc1ccccc1 (stereo partly drawn) [Compound L, (2S)-Isopropyl 2-(((((2R,3R,4R,5R)-5-(2-amino-6-(dimethylamino)-9H-purin-9-yl)-2-(chloromethyl)-4-fluoro-3-hydroxytetrahydrofuran-2-yl)methoxy)(phenoxy)phosphoryl)amino)propanoate]
EC50 [5]: > 159 µM
EC90 [3]: 13.5 µM
Visual toxicity [4]: 158

CC[C@]1(CO)O[C@@H](n2cnc3c(N(C)C)nc(N)nc32)[C@@H](F)[C@@H]1O [Compound U, (2R,3R,4S,5R)-5-(2-Amino-6-(dimethylamino)-9H-purin-9-yl)-2-ethyl-4-fluoro-2-(hydroxymethyl)tetrahydrofuran-3-ol]
EC50 [5]: > 294 µM
EC90 [3]: > 294 µM
Visual toxicity [4]: >294

CN(C)c1nc(N)nc2c1ncn2[C@@H]1O[C@](C)(CO)[C@@H](O)[C@H]1F [A, (2R,3R,4R,5R)-5-(2-Amino-6-(dimethylamino)-9H-purin-9-yl)-4-fluoro-2-(hydroxymethyl)-2-methyltetrahydrofuran-3-ol]
EC50 [5]: > 306 µM
EC90 [3]: 142 µM
Visual toxicity [4]: >306

CC[C@]1(COP(=O)(N[C@@H](C)C(=O)OC(C)C)Oc2ccccc2)O[C@@H](n2cnc3c(N(C)C)nc(N)nc32)[C@@H](F)[C@@H]1O (stereo partly drawn) [Compound V, (2S)-Isopropyl 2-(((((2R,3R,4S,5R)-5-(2-amino-6-(dimethylamino)-9H-purin-9-yl)-2-ethyl-4-fluoro-3-hydroxytetrahydrofuran-2-yl)methoxy)(phenoxy)phosphoryl)-amino) propanoate]
EC50 [5]: > 164 µM
EC90 [3]: 44.8 µM
Visual toxicity [4]: 164

CC(C)OC(=O)[C@H](C)NP(=O)(OC[C@@]1(C)O[C@@H](n2cnc3c(N(C)C)nc(N)nc32)[C@H](F)[C@@H]1O)Oc1ccccc1 (stereo partly drawn) [B, (2S)-Isopropyl 2-(((((2R,3R,4R,5R)-5-(2-amino-6-(dimethylamino)-9H-purin-9-yl)-4-fluoro-3-hydroxy-2-methyltetrahydrofuran-2-yl)methoxy)(phenoxy)phosphoryl)-amino) propanoate]
EC50 [5]: < 168 µM
EC90 [3]: 5.9 µM
Visual toxicity [4]: >167

CN(C)c1nc(N)nc2c1ncn2[C@@H]1O[C@](C)(CO)[C@@H](O)[C@@H]1F [Compound S]
EC50 [5]: > 306 µM
EC90 [3]: > 300 µM
Visual toxicity [4]: >307

COc1cc2nc(N3CCN(C(=O)C4COc5ccccc5O4)CC3)nc(N)c2cc1OC (stereo not drawn) [Doxazosin, reference compound]
IC50 (iPS cardiomyocytes): 12.5 µM

COc1nc(N(C)C)c2ncn([C@@H]3O[C@](C)(CO[P@@](=O)(N[C@@H](C)C(=O)OC(C)C)Oc4ccccc4)[C@@H](O)[C@H]3F)c2n1 [AF, (S)-Isopropyl 2-(((S)-(((2R,3R,4R,5R)-5-(6-(dimethylamino)-2-methoxy-9H-purin-9-yl)-4-fluoro-3-hydroxy-2-methyltetrahydrofuran-2-yl)methoxy)(phenoxy)phosphoryl)amino) propanoate]
EC90 [3]: 0.18 µM
Visual toxicity [4]: >16

CN(C)c1nc(N)nc2c1ncn2[C@@H]1O[C@@](CO)(CCl)[C@@H](O)[C@H]1F [Compound K, (2R,3R,4R,5R)-5-(2-Amino-6-(dimethylamino)-9H-purin-9-yl)-2-(chloromethyl)-4-fluoro-2-(hydroxymethyl)tetrahydrofuran-3-ol]
EC50 [5]: > 225 µM
EC90 [3]: 74.8 µM
Visual toxicity [4]: >277

CC(C)OC(=O)[C@H](C)NP(=O)(OC[C@@]1(CCl)O[C@@H](n2cnc3c(N(C)C)nc(NC(=O)C(C)C)nc32)[C@H](F)[C@@H]1O)Oc1ccccc1 (stereo partly drawn) [Y]
EC50 [5]: > 142 µM

CNc1nc(Cl)nc2c1ncn2[C@@H]1O[C@](C)(CO[P@@](=O)(N[C@@H](C)C(=O)OC(C)C)Oc2ccccc2)[C@@H](O)[C@H]1F [AR, (S)-Isopropyl 2-(((S)-(((2R,3R,4R,5R)-5-(6-(methylamino)-2-chloro-9H-purin-9-yl)-4-fluoro-3-hydroxy-2-methyltetrahydrofuran-2-yl)methoxy)(phenoxy)phosphoryl)amino) propanoate]
EC90 [3]: 1 µM
Visual toxicity [4]: >1.6

CC(C)OC(=O)[C@H](C)NP(=O)(OC[C@@]1(CCl)O[C@@H](n2ccc(N)nc2=O)[C@H](F)C1O)Oc1ccccc1 (stereo in doubt) [Z]
EC50 [5]: > 177 µM
EC90 [3]: 2 µM
Visual toxicity [4]: >177

CC[C@]1(CO)O[C@@H](n2cnc3c(NC)nc(N)nc32)[C@H](F)[C@@H]1O [Compound Q, (2R,3R,4R,5R)-5-(2-Amino-6-(methylamino)-9H-purin-9-yl)-2-ethyl-4-fluoro-2-(hydroxymethyl)tetrahydrofuran-3-ol]
EC90 [3]: 7.3 µM
Visual toxicity [4]: >306

CC(C)C(=O)Nc1nc(N(C)C)c2ncn([C@@H]3O[C@@](CO)(CCl)[C@@H](O)[C@H]3F)c2n1 [X]
EC50 [5]: > 232 µM
